Tests used:
BCL6 BTB domain = BCL6 BTB domain (Homo sapiens (Human), UniProt P41182); test: Surface plasmon resonance (SPR) assay; assay type: binding; conditions: BCL6 BTB domain captured on SA chip, single cycle kinetics
[1] = tested on: BCL6 reporter construct (3xBCL6-TK-Luc) in SuDHL4 cells; test: Cell-based luciferase assay; conditions: Homo sapiens, SU-DHL-4, 48 h, read-out: Luciferase-Assay EC50, uM), SuDHL4-3xBCL6-TK-Luc cells, two days, high dose 10 uM
Procedure, shortened: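 SuDHL4 cells stably carrying a 3×BCL6-site TK-promoter firefly luciferase reporter, seeded at 15,000 cells/well, were dosed over a 10-point range (top 10 uM) and grown two days at 37 °C, 5% CO2. Luminescence then read after adding neolite reagent at room temperature.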

Karpas422 cells = test: Tumor cell growth inhibition assay; assay type: cell-based; conditions: Homo sapiens, KARPAS-422, 144 h, read-out: Tumor Growth Inhibition in Karpas-422 (IC50, uM), Karpas422 cells, six days, ATPlite
Procedure, shortened: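 Karpas422 cells (2,000/well) in Alpha-MEM with 10% FBS dosed across 10 concentrations (top 5 uM) and grown six days at 37° C., 5% CO2. Viability read as ATPlite luminescence.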

SMILES | Kd (BCL6 BTB domain) | EC50 [1] | IC50 (Karpas422 cells)
Cc1nc2c(c(-c3cc(Cl)c(O)c(C(N)=O)c3)cn2CC(=O)Nc2cc(N3CCN(C(C)C)C[C@@H]3C)ncc2Cl)c(=O)n1C [Compound I-272] | 14.8 nM | 0.133 µM | 0.145 µM
CO[C@H]1CN(c2cc(NC(=O)Cn3cc(-c4cc(Cl)c(O)c(C(N)=O)c4)c4c(=O)n(C)c(C)nc43)c(Cl)cn2)C[C@H]1F [Compound I-401] | 28.9 nM | 0.427 µM | 1.22 µM
C[C@@H]1CN(CCN(C)c2cc(NC(=O)Cn3cc(-c4cc(Cl)c(O)c(C(N)=O)c4)c4c(=O)n(C)cnc43)c(Cl)cn2)C[C@H](C)O1 [Compound I-73] | 19 nM | 0.233 µM | 0.165 µM
CO[C@@H]1CN(c2cc(NC(=O)Cn3cc(-c4cc(Cl)c(O)c(C(N)=O)c4)c4c(=O)n(C)c(C(F)(F)F)nc43)c(Cl)cn2)C[C@@H]1F [Compound I-386] | 153 nM | 1.01 µM | 0.772 µM
CN1CC2CN(c3cc(NC(=O)Cn4cc(-c5cc(F)c(O)c(C(N)=O)c5)c5c(=O)n(C)cnc54)c(Cl)cn3)CC2C1 (stereo not drawn) [Compound I-287] | 18.6 nM | 1.71 µM | 1.44 µM
CN1CC2CC1CN2c1cc(NC(=O)Cn2cc(-c3cc(Cl)c(O)c(C(N)=O)c3)c3c(=O)n(C)cnc32)c(Cl)cn1 (stereo not drawn) [Compound I-367] | 41.9 nM | 5.3 µM | 3.49 µM
Cn1cnc2c(c(-c3cc(F)c(O)c(C(N)=O)c3)cn2CC(=O)Nc2cc(N3C[C@H]4CCO[C@H]4C3)ncc2Cl)c1=O [Compound I-158] | 1.76 nM | 1.01 µM | 0.249 µM
C[C@H]1COCCN1c1cc(NC(=O)Cn2cc(-c3cc(F)c(O)c(C(N)=O)c3)c3c(=O)n(C)cnc32)c(Cl)c(F)n1 [Compound I-319] | 3.96 nM | 0.104 µM | 0.0994 µM
Cn1cnc2c(c(-c3cc(Cl)c(O)c(C(N)=O)c3)cn2CC(=O)Nc2cc(N3CC4CCC(F)(F)C4C3)ncc2Cl)c1=O (stereo not drawn) [Compound I-278] | 42.5 nM | 0.622 µM | 1.13 µM
CN1CC2CC(C1)N2c1cc(NC(=O)Cn2cc(-c3cc(Cl)c(O)c(C(N)=O)c3)c3c(=O)n(C)cnc32)c(Cl)cn1 [Compound I-449] | 60.3 nM | 2.48 µM | 1.97 µM
Cn1cnc2c(c(-c3cc(F)c(O)c(C(N)=O)c3)cn2CC(=O)Nc2cc(N3CC4CC3CO4)ncc2Cl)c1=O (stereo not drawn) [Compound I-284] | 23.4 nM | 0.628 µM | 0.75 µM
Cn1cnc2c(c(-c3cc(Cl)c(O)c(C(N)=O)c3)cn2CC(=O)Nc2cc3c(cc2Cl)OCCN3CCN2CCOCC2)c1=O [Compound I-213] | 18.6 nM | 0.842 µM | 0.878 µM
CCN1CCN(c2cc(NC(=O)Cn3cc(-c4cc(C(N)=O)c(O)c5c4OCO5)c4c(=O)n(C)cnc43)c(Cl)c(F)n2)[C@@H](C)C1 [Compound I-357] | 1.86 nM | 0.0322 µM | 0.0288 µM
C[C@@H]1CN(c2cc(NC(=O)Cn3cc(-c4cc(C(N)=O)c(O)c(F)c4F)c4c(=O)n(C)cnc43)c(Cl)cn2)C[C@H](C)N1 [Compound I-225] | 115 nM | 20.5 µM | 4.34 µM
Cn1c(CCc2ccc(F)cc2)nc2c(c(-c3cc(Cl)c(O)c(C(N)=O)c3)cn2CC(=O)Nc2cc(N3CCOCC3)ncc2Cl)c1=O [Compound I-127] | 201 nM | 0.756 µM | 0.276 µM
CCN1CCN(c2cc(NC(=O)Cn3cc(-c4cc(Cl)c(O)c(C(N)=O)c4)c4c(=O)n(C)cnc43)c(Cl)cn2)[C@@H](C)C1 [Compound I-331] | 17.8 nM | 0.254 µM | 0.176 µM
C=Cc1cc(NC(=O)Cn2cc(-c3cc(Cl)c(O)c(C(N)=O)c3)c3c(=O)n(C)cnc32)c(Cl)cn1 [Compound I-209] | 51 nM | 0.296 µM | 0.343 µM
C[C@H]1CN(C)CCN1c1cc(NC(=O)Cn2cc(-c3cc(C(N)=O)c(O)c(F)c3F)c3c(=O)n(CC#Cc4cnn(C)c4)cnc32)c(Cl)cn1 [Compound I-304] | 6.56 nM | 0.228 µM | 0.314 µM
C[C@H]1CN(CC2CCO2)CCN1c1cc(NC(=O)Cn2cc(-c3cc(C(N)=O)c(O)c(F)c3F)c3c(=O)n(C)cnc32)c(Cl)c(F)n1 (stereo partly drawn) [Compound I-460, 5-(7-(2-((3-chloro-2-fluoro-6-((2S)-2-methyl-4-(oxetan-2-ylmethyl)piperazin-1-yl)pyridin-4-yl)amino)-2-oxoethyl)-3-methyl-4-oxo-4,7-dihydro-3H-pyrrolo[2,3-d]pyrimidin-5-yl)-3,4-difluoro-2-hydroxybenzamide] | 9.87 nM | 0.102 µM | 0.223 µM
Cc1nc2c(c(-c3cc(C(N)=O)c(O)c(F)c3F)cn2CC(=O)Nc2cc(N3CCOC[C@@H]3C)nc(F)c2Cl)c(=O)n1C [Compound I-316] | 24.1 nM | 0.243 µM | 0.376 µM

SMILES | Kd (BCL6 BTB domain) | EC50 [1] | IC50 (Karpas422 cells)
CN1CC2(CCN(c3cc(NC(=O)Cn4cc(-c5cc(F)c(O)c(C(N)=O)c5)c5c(=O)n(C)cnc54)c(Cl)cn3)C2)C1 [Compound I-484] | 40.3 nM | 21.6 µM | 10 µM
COc1c(O)c(C(N)=O)cc(-c2cn(CC(=O)Nc3cc(N4CCOC[C@@H]4C)ncc3Cl)c3ncn(C)c(=O)c23)c1F [Compound I-168] | 74 nM | 1.3 µM | 0.769 µM
Cn1cnc2c(c(-c3cc(Cl)c(O)c(C(N)=O)c3)cn2CC(=O)Nc2nc(N3CCOCC3)c(F)cc2Cl)c1=O [Compound I-328] | 239 nM | 3.76 µM | 2.66 µM
Cc1nc2c(c(-c3cc(Cl)c(O)c(C(N)=O)c3)cn2CC(=O)Nc2cc(N3CCN(C)C[C@@H]3C)ncc2Cl)c(=O)n1C [Compound I-206] | 9.34 nM | 0.122 µM | 0.128 µM
CC(C)N1CCN(c2cc(NC(=O)Cn3cc(-c4cc(Cl)c(O)c(C(N)=O)c4)c4c(=O)n(C)c(C(F)(F)F)nc43)c(Cl)cn2)[C@@H](C)C1 [Compound I-274] | 138 nM | 0.669 µM | 0.332 µM
CN(C)C1CN(c2cc(NC(=O)Cn3cc(-c4cc(Cl)c(O)c(C(N)=O)c4)c4c(=O)n(C)cnc43)c(Cl)cn2)C1 [Compound I-347] | 57.4 nM | 0.603 µM | 0.454 µM
Cn1cnc2c(c(-c3cc(Cl)c(O)c(C(N)=O)c3)cn2CC(=O)Nc2cc(N3CC4CC3CO4)ncc2Cl)c1=O (stereo not drawn) [Compound I-154] | 33.9 nM | 0.469 µM | 0.559 µM
C[C@H]1CN(CC2CC2)CCN1c1cc(NC(=O)Cn2cc(-c3cc(Cl)c(O)c(C(N)=O)c3)c3c(=O)n(C)c(C(F)(F)F)nc32)c(Cl)cn1 [Compound I-343] | 180 nM | 0.641 µM | 0.383 µM
C[C@H]1COCCN1c1cc(NC(=O)Cn2cc(-c3cc(Cl)c(O)c(C(N)=O)c3)c3c(=O)n(CC#Cc4cnn(C)c4)cnc32)c(Cl)cn1 [Compound I-82] | 6 nM | 0.133 µM | 0.034 µM
C[C@H]1CN(C2COC2)CCN1c1cc(NC(=O)Cn2cc(-c3cc(Cl)c(O)c(C(N)=O)c3)c3c(=O)n(C)cnc32)c(Cl)cn1 [Compound I-345] | 6.15 nM | 0.0927 µM | 0.166 µM
CC1OCCN(c2cc(NC(=O)Cn3cc(-c4cc(Cl)c(O)c(C(N)=O)c4)c4c(=O)n(C)cnc43)c(Cl)cn2)C1C (stereo not drawn) [Compound I-83] | 16 nM | 0.148 µM | 0.119 µM
Cn1cnc2c(c(-c3cc(C(N)=O)c(O)cc3F)cn2CC(=O)Nc2cc(N3CC4CCC(C3)O4)ncc2Cl)c1=O [Compound I-162] | 84.7 nM | 0.676 µM | 0.643 µM
C[C@H]1COCCN1c1cc(NC(=O)Cn2cc(-c3cc(C(N)=O)c(O)c(F)c3F)c3c(=O)n(C)cnc32)c(Cl)cn1 [Compound I-180] | 45.4 nM | 1.37 µM | 2.18 µM
CO[C@@H]1CCN(c2cc(NC(=O)Cn3cc(-c4cc(C(N)=O)c(O)c(F)c4F)c4c(=O)n(C)cnc43)c(Cl)cn2)C1 [Compound I-354] | 54.8 nM | 1.02 µM | 1.27 µM
Cc1nc2c(c(-c3cc(Cl)c(O)c(C(N)=O)c3)cn2CC(=O)Nc2cc(N3CC(C)(C)N(C)C(C)(C)C3)ncc2Cl)c(=O)n1C [Compound I-232] | 11.8 nM | 0.267 µM | 0.222 µM
C[C@H]1COCCN1c1cc(NC(=O)Cn2cc(-c3cc(Cl)c(O)c(C(N)=O)c3)c3c(=O)n(C)c(-c4ccccc4)nc32)c(Cl)cn1 [Compound I-248] | 326 nM | 11.9 µM | 0.29 µM
CN1CCN(c2cc(NC(=O)Cn3cc(-c4cc(C(N)=O)c(O)c(F)c4F)c4c(=O)n(C)cnc43)c(Cl)cn2)CC1 [Compound I-231] | 89.9 nM | 1.47 µM | 1.18 µM
CN(C1CCC(c2cc(NC(=O)Cn3cc(-c4cc(Cl)c(O)c(C(N)=O)c4)c4c(=O)n(C)cnc43)c(Cl)cn2)C1)S(C)(=O)=O (stereo not drawn) [Compound I-148] | 20.9 nM | 1.31 µM | 0.541 µM
COCCN1CCN(c2cc(NC(=O)Cn3cc(-c4cc(C(N)=O)c(O)c(F)c4F)c4c(=O)n(C)cnc43)c(Cl)c(F)n2)[C@@H](C)C1 [Compound I-446] | 7.29 nM | 0.157 µM | 0.137 µM
Cn1cnc2c(c(-c3cc(C(N)=O)c(O)c(F)c3F)cn2CC(=O)Nc2cc(N3C[C@H]4CC[C@@H](C3)N4CC(F)(F)F)ncc2Cl)c1=O [Compound I-475] | 50.5 nM | 0.484 µM | 0.576 µM

From US11518764B2, “Substituted heteroaryls as inhibitors of the BCL6 BTB domain protein-protein interaction” (Ontario Institute for Cancer Research (OICR), priority 2018, dated 2022)
